Data: patent US20240425480A1, “NOVEL PYRIDINE DERIVATIVE COMPOUND AS RON INHIBITOR” (LG CHEM, LTD., priority 2021, published 2024)

Assays:
[1] = target: RON (Homo sapiens, UniProt Q04912); assay: Inhibitory activity against RON, TR-FRET kinase assay; assay type: biochemical; settings: TR-FRET enzyme assay
In short: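 Compounds (3-fold series from a 1 mM DMSO stock) were preincubated 20–30 min at RT with RON (0.4 nM solution) in pH 7.4 HEPES, 10 mM MgCl2 buffer. A 2× cocktail of 40 uM ULight-Poly GT and 100 nM ATP was then added for 60 min at RT. After EDTA stop, Eu anti-phosphotyrosine TR-FRET (665/620 nm) was read and IC50 derived.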

[2] = target: cMET (Homo sapiens, UniProt P08581); assay: Inhibitory activity against MET (cMET), TR-FRET kinase assay; assay type: biochemical; settings: TR-FRET enzyme assay
In short: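 Human cMET (2 nM dilution) preincubated with compound 20-30 min at room temperature in HEPES pH 7.4 buffer with MnCl2/MgCl2, then 60 min with TK peptide and ATP substrate cocktail (5 uM peptide, 10 mM ATP, prepared at 2× final). EDTA-stopped; europium anti-phosphotyrosine TR-FRET read at 620/665 nm; pIC50 derived.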

Chain of cMET (P08581 25-1390): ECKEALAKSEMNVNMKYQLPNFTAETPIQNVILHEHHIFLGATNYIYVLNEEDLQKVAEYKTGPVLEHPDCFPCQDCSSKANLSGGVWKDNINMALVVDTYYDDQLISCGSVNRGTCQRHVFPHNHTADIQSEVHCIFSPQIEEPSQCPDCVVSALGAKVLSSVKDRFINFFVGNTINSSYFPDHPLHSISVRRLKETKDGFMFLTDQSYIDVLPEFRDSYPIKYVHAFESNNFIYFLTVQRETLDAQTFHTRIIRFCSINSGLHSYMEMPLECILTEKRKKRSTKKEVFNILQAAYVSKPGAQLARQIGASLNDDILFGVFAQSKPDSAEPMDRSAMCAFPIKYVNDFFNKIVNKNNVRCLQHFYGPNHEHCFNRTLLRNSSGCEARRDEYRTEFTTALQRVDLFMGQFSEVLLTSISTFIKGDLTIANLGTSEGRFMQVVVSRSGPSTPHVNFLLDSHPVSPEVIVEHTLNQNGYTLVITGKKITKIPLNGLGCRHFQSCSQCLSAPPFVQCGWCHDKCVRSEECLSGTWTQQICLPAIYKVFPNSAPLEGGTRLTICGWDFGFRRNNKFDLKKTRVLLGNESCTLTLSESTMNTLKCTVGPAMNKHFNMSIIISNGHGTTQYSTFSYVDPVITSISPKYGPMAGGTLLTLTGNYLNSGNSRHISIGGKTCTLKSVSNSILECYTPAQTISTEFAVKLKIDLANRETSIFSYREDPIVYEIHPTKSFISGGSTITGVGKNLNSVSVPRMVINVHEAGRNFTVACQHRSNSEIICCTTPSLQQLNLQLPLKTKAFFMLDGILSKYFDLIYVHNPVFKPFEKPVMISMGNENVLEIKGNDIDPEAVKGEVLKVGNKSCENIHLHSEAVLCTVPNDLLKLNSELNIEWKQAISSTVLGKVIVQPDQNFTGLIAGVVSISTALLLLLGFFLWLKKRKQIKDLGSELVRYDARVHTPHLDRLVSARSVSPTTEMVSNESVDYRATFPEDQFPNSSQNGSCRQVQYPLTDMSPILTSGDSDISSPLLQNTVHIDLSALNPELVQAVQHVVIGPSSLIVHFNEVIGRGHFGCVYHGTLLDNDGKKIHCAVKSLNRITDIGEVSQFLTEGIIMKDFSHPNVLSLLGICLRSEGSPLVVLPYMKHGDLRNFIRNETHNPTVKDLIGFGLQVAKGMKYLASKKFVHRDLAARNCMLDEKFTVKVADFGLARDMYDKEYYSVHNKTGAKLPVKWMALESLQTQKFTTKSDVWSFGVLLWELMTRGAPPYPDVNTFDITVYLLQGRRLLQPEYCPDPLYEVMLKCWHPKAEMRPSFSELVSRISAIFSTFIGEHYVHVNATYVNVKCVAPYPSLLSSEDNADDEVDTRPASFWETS
Chain of RON (Q04912 25-1400, species assumed): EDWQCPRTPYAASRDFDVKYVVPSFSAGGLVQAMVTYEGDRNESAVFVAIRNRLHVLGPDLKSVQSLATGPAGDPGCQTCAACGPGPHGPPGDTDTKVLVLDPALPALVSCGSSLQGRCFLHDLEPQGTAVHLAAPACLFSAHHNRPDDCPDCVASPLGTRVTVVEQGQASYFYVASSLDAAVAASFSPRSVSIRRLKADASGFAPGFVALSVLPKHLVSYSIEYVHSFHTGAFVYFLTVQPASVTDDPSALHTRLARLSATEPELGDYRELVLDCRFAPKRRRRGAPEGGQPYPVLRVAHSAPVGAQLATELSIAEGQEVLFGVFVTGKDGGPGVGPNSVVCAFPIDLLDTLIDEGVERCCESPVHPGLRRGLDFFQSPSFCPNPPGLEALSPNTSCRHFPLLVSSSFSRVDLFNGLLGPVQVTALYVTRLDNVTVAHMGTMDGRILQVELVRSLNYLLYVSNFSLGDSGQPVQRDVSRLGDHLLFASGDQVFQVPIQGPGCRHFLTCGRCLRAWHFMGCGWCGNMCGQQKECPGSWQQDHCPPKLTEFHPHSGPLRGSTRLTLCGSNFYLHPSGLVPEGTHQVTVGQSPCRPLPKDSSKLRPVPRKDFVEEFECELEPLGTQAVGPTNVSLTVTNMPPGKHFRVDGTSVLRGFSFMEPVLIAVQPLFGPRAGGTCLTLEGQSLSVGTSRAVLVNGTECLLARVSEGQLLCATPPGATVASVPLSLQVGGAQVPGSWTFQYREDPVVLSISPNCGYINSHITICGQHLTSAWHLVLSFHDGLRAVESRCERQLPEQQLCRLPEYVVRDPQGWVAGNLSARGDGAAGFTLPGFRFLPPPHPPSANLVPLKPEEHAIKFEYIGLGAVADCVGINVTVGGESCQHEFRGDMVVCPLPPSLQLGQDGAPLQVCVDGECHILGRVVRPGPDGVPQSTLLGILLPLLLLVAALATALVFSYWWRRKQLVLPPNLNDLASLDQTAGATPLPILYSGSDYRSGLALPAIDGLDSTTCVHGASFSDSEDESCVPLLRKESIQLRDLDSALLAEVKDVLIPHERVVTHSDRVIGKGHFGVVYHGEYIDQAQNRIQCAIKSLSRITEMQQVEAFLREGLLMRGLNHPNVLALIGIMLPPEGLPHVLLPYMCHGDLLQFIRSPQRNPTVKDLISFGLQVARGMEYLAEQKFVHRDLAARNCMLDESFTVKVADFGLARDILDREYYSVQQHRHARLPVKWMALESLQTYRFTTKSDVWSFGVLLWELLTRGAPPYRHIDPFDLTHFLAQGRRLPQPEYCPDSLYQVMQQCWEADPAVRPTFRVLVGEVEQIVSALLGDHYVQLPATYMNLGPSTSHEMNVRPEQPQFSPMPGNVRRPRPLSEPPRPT

Row | Compound | IC50 [1] [µM] | IC50 [2] [µM]
1 | Nc1ncnc(Oc2ccc(NC(=O)c3cnn(-c4ccncn4)c3C(F)(F)F)cc2F)c1Cl [Example 61, N-[4-(6-amino-5-chloro-pyrimidin-4-yl)oxy-3-fluoro-phenyl]-1-pyrimidin-4-yl-5-(trifluoromethyl)pyrazole-4-carboxamide] | 0.5 to 5 | > 5
2 | O=C(Nc1ccc(Oc2ncnc(NC3CC3)c2Cl)c(F)c1)c1cnn(-c2ncccc2F)c1C(F)(F)F [Example 65, N-[4-[5-chloro-6-(cyclopropylamino)pyrimidin-4-yl]oxy-3-fluoro-phenyl]-1-(3-fluoro-2-pyridyl)-5-(trifluoromethyl)pyrazole-4-carboxamide] | 0.5 to 5 | > 5
3 | O=C(Nc1ccc(Oc2ncnc(NC3CC3)c2Cl)c(F)c1)c1cnn(-c2ncccc2Cl)c1C(F)(F)F [Example 66, N-[4-[5-chloro-6-(cyclopropylamino)pyrimidin-4-yl]oxy-3-fluoro-phenyl]-1-(3-chloro-2-pyridyl)-5-(trifluoromethyl)pyrazole-4-carboxamide] | > 5 | > 5

Results, then the compound that gave them:

Row | IC50 [1] [µM] | IC50 [2] [µM] | Compound
4 | 0.05 to 0.5 | > 5 | Cc1ccnc(-n2ncc(C(=O)Nc3ccc(Oc4ncnc(N)c4Cl)c(F)c3)c2C(F)(F)F)n1 [Example 62, N-[4-(6-amino-5-chloro-pyrimidin-4-yl)oxy-3-fluoro-phenyl]-1-(4-methylpyrimidin-2-yl)-5-(trifluoromethyl)pyrazole-4-carboxamide]
5 | 0.05 to 0.5 | > 5 | Nc1ncnc(Oc2ccc(NC(=O)c3cnn(-c4cc(F)ccn4)c3C(F)(F)F)cc2F)c1Cl [Example 63, N-[4-(6-amino-5-chloro-pyrimidin-4-yl)oxy-3-fluoro-phenyl]-1-(4-fluoro-2-pyridyl)-5-(trifluoromethyl)pyrazole-4-carboxamide]
6 | 0.05 to 0.5 | > 5 | Nc1ncnc(Oc2ccc(NC(=O)c3cnn(-c4cc(O)ccn4)c3C(F)(F)F)cc2F)c1Cl [Example 64, N-[4-(6-amino-5-chloro-pyrimidin-4-yl)oxy-3-fluoro-phenyl]-1-(4-hydroxy-2-pyridyl)-5-(trifluoromethyl)pyrazole-4-carboxamide]
